± gives the expanded uncertainty stated by the source.
Details: Liquid, Vibrating tube method

CCCCCC(=O)OCC(COC(=O)CCCCC)(COC(=O)CCCCC)COC(=O)CCCCC [pentaerythritol tetrahexanoate]
Details | mass density [kg/m3]
323.16 K, 30799 kPa | 992.6 ± 1.2
323.16 K, 30820 kPa | 992.6 ± 1.2
323.16 K, 30845 kPa | 992.6 ± 1.2
323.16 K, 30870 kPa | 992.7 ± 1.2
323.16 K, 30895 kPa | 992.6 ± 1.2
323.16 K, 30916 kPa | 992.5 ± 1.2
323.16 K, 30942 kPa | 992.7 ± 1.2
323.16 K, 30968 kPa | 992.6 ± 1.2
323.16 K, 30994 kPa | 992.7 ± 1.2
323.16 K, 31020 kPa | 992.9 ± 1.2
323.16 K, 31046 kPa | 992.7 ± 1.2
323.16 K, 31070 kPa | 992.8 ± 1.2
323.16 K, 31096 kPa | 992.8 ± 1.2
323.16 K, 31122 kPa | 992.8 ± 1.2
323.16 K, 31139 kPa | 992.8 ± 1.2
323.16 K, 31159 kPa | 992.8 ± 1.2
323.16 K, 31180 kPa | 992.8 ± 1.2
323.16 K, 31200 kPa | 992.8 ± 1.2
323.16 K, 31217 kPa | 992.9 ± 1.2
323.16 K, 31237 kPa | 992.9 ± 1.2
323.16 K, 31258 kPa | 992.9 ± 1.2
323.16 K, 31278 kPa | 993 ± 1.2
323.16 K, 31295 kPa | 992.7 ± 1.2
323.16 K, 31315 kPa | 993 ± 1.2
323.16 K, 31335 kPa | 992.9 ± 1.2
323.16 K, 31356 kPa | 993 ± 1.2
323.16 K, 31378 kPa | 992.9 ± 1.2
323.16 K, 31395 kPa | 992.9 ± 1.2
323.16 K, 31412 kPa | 993 ± 1.2
323.16 K, 31433 kPa | 993.1 ± 1.2
323.16 K, 31554 kPa | 993.1 ± 1.2
323.16 K, 31575 kPa | 993.1 ± 1.2
323.16 K, 31592 kPa | 993.1 ± 1.2
323.16 K, 31613 kPa | 993 ± 1.2
323.16 K, 31635 kPa | 993 ± 1.2
323.16 K, 31777 kPa | 993.1 ± 1.2
323.16 K, 31798 kPa | 993.2 ± 1.2
323.16 K, 31820 kPa | 993.2 ± 1.2
323.16 K, 31838 kPa | 993.2 ± 1.2
323.16 K, 31860 kPa | 993.2 ± 1.2
323.16 K, 31882 kPa | 993.2 ± 1.2
323.16 K, 31905 kPa | 993.3 ± 1.2
323.16 K, 31927 kPa | 993.3 ± 1.2
323.16 K, 31950 kPa | 993.2 ± 1.2
323.16 K, 31973 kPa | 993.4 ± 1.2
323.16 K, 31996 kPa | 993.3 ± 1.2
323.16 K, 32016 kPa | 993.3 ± 1.2
323.16 K, 32032 kPa | 993.4 ± 1.2
323.16 K, 32048 kPa | 993.4 ± 1.2
323.16 K, 32064 kPa | 993.3 ± 1.2
323.16 K, 32081 kPa | 993.4 ± 1.2
323.16 K, 32097 kPa | 993.3 ± 1.2
323.16 K, 32114 kPa | 993.3 ± 1.2
323.16 K, 32132 kPa | 993.4 ± 1.2
323.16 K, 32149 kPa | 993.3 ± 1.2
323.16 K, 32165 kPa | 993.4 ± 1.2
323.16 K, 32183 kPa | 993.4 ± 1.2
323.16 K, 32202 kPa | 993.5 ± 1.2
323.16 K, 32221 kPa | 993.5 ± 1.2
323.16 K, 32240 kPa | 993.4 ± 1.2
323.16 K, 32260 kPa | 993.5 ± 1.2
323.16 K, 32366 kPa | 993.4 ± 1.2
323.16 K, 32374 kPa | 993.5 ± 1.2
323.16 K, 32380 kPa | 993.5 ± 1.2
323.16 K, 32383 kPa | 993.5 ± 1.2
323.17 K, 1378.9 kPa | 973.7 ± 1.2
323.17 K, 2060 kPa | 974 ± 1.2
323.17 K, 2070.1 kPa | 974.2 ± 1.2
323.17 K, 15528 kPa | 983.3 ± 1.2
323.17 K, 15553 kPa | 983.3 ± 1.2
323.17 K, 15582 kPa | 983.4 ± 1.2
323.17 K, 15606 kPa | 983.4 ± 1.2
323.17 K, 15845 kPa | 983.4 ± 1.2
323.17 K, 15865 kPa | 983.5 ± 1.2
323.17 K, 15889 kPa | 983.4 ± 1.2
323.17 K, 15909 kPa | 983.5 ± 1.2
323.17 K, 15932 kPa | 983.5 ± 1.2
323.17 K, 15952 kPa | 983.3 ± 1.2
323.17 K, 15976 kPa | 983.5 ± 1.2
323.17 K, 16001 kPa | 983.4 ± 1.2
323.17 K, 16021 kPa | 983.6 ± 1.2
323.17 K, 16045 kPa | 983.5 ± 1.2
323.17 K, 16069 kPa | 983.6 ± 1.2
323.17 K, 16089 kPa | 983.6 ± 1.2
323.17 K, 16114 kPa | 983.7 ± 1.2
323.17 K, 16135 kPa | 983.7 ± 1.2
323.17 K, 16160 kPa | 983.6 ± 1.2
323.17 K, 16308 kPa | 983.8 ± 1.2
323.17 K, 16329 kPa | 983.7 ± 1.2
323.17 K, 16337 kPa | 983.7 ± 1.2
323.17 K, 16338 kPa | 983.8 ± 1.2
323.17 K, 16340 kPa | 983.8 ± 1.2
323.17 K, 19154 kPa | 985.4 ± 1.2
323.17 K, 19182 kPa | 985.6 ± 1.2
323.17 K, 19210 kPa | 985.5 ± 1.2
323.17 K, 19238 kPa | 985.5 ± 1.2
323.17 K, 19267 kPa | 985.7 ± 1.2
323.17 K, 19296 kPa | 985.6 ± 1.2
323.17 K, 19320 kPa | 985.7 ± 1.2
323.17 K, 19350 kPa | 985.6 ± 1.2
323.17 K, 20368 kPa | 986.3 ± 1.2
323.17 K, 20425 kPa | 986.4 ± 1.2
323.17 K, 22257 kPa | 987.5 ± 1.2
323.17 K, 22284 kPa | 987.5 ± 1.2
323.17 K, 22311 kPa | 987.5 ± 1.2
323.17 K, 22338 kPa | 987.6 ± 1.2
323.17 K, 22361 kPa | 987.6 ± 1.2
323.17 K, 22388 kPa | 987.5 ± 1.2
323.17 K, 22416 kPa | 987.7 ± 1.2
323.17 K, 22443 kPa | 987.6 ± 1.2
323.17 K, 22466 kPa | 987.7 ± 1.2
323.17 K, 22493 kPa | 987.7 ± 1.2
323.17 K, 22520 kPa | 987.5 ± 1.2
323.17 K, 25533 kPa | 989.4 ± 1.2
323.17 K, 25562 kPa | 989.5 ± 1.2
323.17 K, 25592 kPa | 989.5 ± 1.2
323.17 K, 25621 kPa | 989.5 ± 1.2
323.17 K, 25651 kPa | 989.4 ± 1.2
323.17 K, 25676 kPa | 989.5 ± 1.2
323.17 K, 25737 kPa | 989.6 ± 1.2
323.17 K, 25767 kPa | 989.6 ± 1.2
323.17 K, 25792 kPa | 989.7 ± 1.2
323.17 K, 25823 kPa | 989.7 ± 1.2
323.17 K, 25853 kPa | 989.7 ± 1.2
323.17 K, 25884 kPa | 989.6 ± 1.2
323.17 K, 25909 kPa | 989.8 ± 1.2
323.17 K, 25940 kPa | 989.8 ± 1.2
323.17 K, 25972 kPa | 989.8 ± 1.2
323.17 K, 26003 kPa | 989.7 ± 1.2
323.17 K, 26033 kPa | 989.7 ± 1.2
323.17 K, 26762 kPa | 990.3 ± 1.2
323.17 K, 26791 kPa | 990.3 ± 1.2
323.17 K, 26815 kPa | 990.1 ± 1.2
323.17 K, 26845 kPa | 990.3 ± 1.2
323.17 K, 26872 kPa | 990.3 ± 1.2
323.17 K, 26901 kPa | 990.4 ± 1.2
323.17 K, 26930 kPa | 990.4 ± 1.2
323.17 K, 26959 kPa | 990.3 ± 1.2
323.17 K, 26984 kPa | 990.3 ± 1.2
323.17 K, 27013 kPa | 990.3 ± 1.2
323.17 K, 27043 kPa | 990.5 ± 1.2
323.17 K, 27073 kPa | 990.4 ± 1.2
323.17 K, 27102 kPa | 990.4 ± 1.2
323.17 K, 27127 kPa | 990.4 ± 1.2
323.17 K, 27157 kPa | 990.4 ± 1.2

Reference: the NIST ThermoML archive (doi:10.1021/je060271a)
